In patent US4085224A, “Method of increasing feed utilization” (Eli Lilly and Company, priority 1976, dated 1978):

Experiments:
[1] = tested on: type III poliovirus; type: cell-based; conditions: in vitro plaque suppression
[2] = tested on: Eimeria acervulina; experiment: anticoccidial activity in chicks (Table IX); type: in vivo; conditions: E. acervulina; for Average Lesion Score: infected controls 1.60; for Oocysts Passed, Total/Bird: infected controls 36.32; for Percent Weight Gain: infected controls 63
Source text: (§1) ^1 Four replicates, 5 broiler cockerels each

[3] = tested on: Eimeria maxima; experiment: anticoccidial activity in chicks (Table IX); type: in vivo; conditions: E. maxima, 0.005 percent in feed
Source text: as §1

[4] = tested on: Emeria brunetti; experiment: anticoccidial activity in chicks (Table IX); type: in vivo; conditions: E. brunetti, 0.005 percent in feed
Source text: as §1

Question: `CCC(C(=O)O)C1OC(C(C)C(O)C(C)C(=O)C(CC)C2OC3(C=CC(O)C4(CCC(C)(C5CCC(O)(CC)C(C)O5)O4)O3)C(C)CC2C)C(C)CC1C` (centres unmarked) [A-28086 factor A] was tested. Which antiviral activity [1] did it give?
Answer: active

Question: What about the “Oocysts Passed, Percent Reduction” value ([2]; 0.0025 percent in feed) of the same molecule?
Answer: 86%

Question: And the “Percent Mortality” value ([2]; 0.0025 percent in feed)?
Answer: 0%

Question: And the “Average Lesion Score” value ([2]; 0.0025 percent in feed)?
Answer: 1.25

Question: And the “Oocysts Passed, Total/Bird” value ([2]; 0.0025 percent in feed)?
Answer: 4.91 1 × 10^6

Question: And the “Percent Weight Gain” value ([2]; 0.0025 percent in feed)?
Answer: 82%

Question: What about the “Oocysts Passed, Percent Reduction” value ([2]; 0.005 percent in feed) of the same molecule?
Answer: 83%

Question: And the “Percent Mortality” value ([2]; 0.005 percent in feed)?
Answer: 0%

Question: What about the “Percent Reduction in Lesion Score” value ([2]; 0.005 percent in feed) of the same molecule?
Answer: 53%

Question: What about the “Average Lesion Score” value ([2]; 0.005 percent in feed) of the same molecule?
Answer: 0.75

Question: And the “Oocysts Passed, Total/Bird” value ([2]; 0.005 percent in feed)?
Answer: 6.15 1 × 10^6

Question: And the “Percent Weight Gain” value ([2]; 0.005 percent in feed)?
Answer: 87%

Question: What about the “Oocysts Passed, Percent Reduction” value [3] of the same molecule?
Answer: 40%

Question: What about the “Percent Mortality” value [3] of the same molecule?
Answer: 0%

Question: And the “Percent Reduction in Lesion Score” value [3]?
Answer: 85%

Question: And the “Average Lesion Score” value ([3]; infected controls 1.3)?
Answer: 0.2

Question: What about the “Oocysts Passed, Total/Bird” value ([3]; infected controls 3.24) of the same molecule?
Answer: 1.95 1 × 10^6

Question: And the “Percent Weight Gain” value ([3]; infected controls 65)?
Answer: 85%

Question: What about the “Oocysts Passed, Percent Reduction” value [4] of the same molecule?
Answer: 58%

Question: What about the “Percent Mortality” value [4] of the same molecule?
Answer: 0%

Question: What about the “Average Lesion Score” value ([4]; infected controls 1.7) of the same molecule?
Answer: 1.2

Question: And the “Oocysts Passed, Total/Bird” value ([4]; infected controls 5.55)?
Answer: 2.31 1 × 10^6

Question: And the “Percent Weight Gain” value ([4]; infected controls 62)?
Answer: 88%
